Test results as given in patent US9993536B2, “Peptides and combination of peptides and scaffolds for use in immunotherapy against renal cell carcinoma (RCC) and other cancers” (immatics biotechnologies GmbH, priority 2015, dated 2018).
Blank lines part the entries; values can stand above or below the substance they belong to.

How the values were obtained:
CD8+ T cells = test: In vitro T-cell priming assay with aAPCs loaded with peptide/MHC complexes and anti-CD28 (immunogenicity, multimer staining); format: cell-based, human; conditions: in vitro immunogenicity, HLA class I peptides; percentage of positive wells
Source text: In order to obtain information regarding the immunogenicity of the TUMAPs of the present invention, the inventors performed investigations using an in vitro T-cell priming assay based on repeated stimulations of CD8+ T cells with artificial antigen presenting cells (aAPCs) loaded with peptide/MHC complexes and anti-CD28 antibody.
In order to perform in vitro stimulations by artificial antigen presenting cells loaded with peptide-MHC complex (pMHC) and anti-CD28 antibody, the inventors first isolated CD8+ T cells from fresh HLA-A*02 leukapheresis products via positive selection using CD8 microbeads (Miltenyi Biotec, Bergisch-Gladbach, Germany) of healthy donors obtained from the University clinics Mannheim, Germany, after informed consent.
PBMCs and isolated CD8+ lymphocytes were incubated in T-cell medium (TCM) until use consisting of RPMI-Glutamax (Invitrogen, Karlsruhe, Germany) supplemented with 10% heat inactivated human AB serum (PAN-Biotech, Aidenbach, Germany), 100 U/ml Penicillin/100 μg/ml Streptomycin (Cambrex, Cologne, Germany), 1 mM sodium pyruvate (CC Pro, Oberdorla, Germany), 20 μg/ml Gentamycin (Cambrex). 2.5 ng/ml IL-7 (PromoCell, Heidelberg, Germany) and 10 U/ml IL-2 (Novartis Pharma, Nürnberg, Germany) were also added to the TCM at this step.
Generation of pMHC/anti-CD28 coated beads, T-cell stimulations and readout was performed in a highly defined in vitro system using four different pMHC molecules per stimulation condition and 8 different pMHC molecules per readout condition.
The purified co-stimulatory mouse IgG2a anti human CD28 Ab 9.3 (Jung et al., 1987) was chemically biotinylated using Sulfo-N-hydroxysuccinimidobiotin as recommended by the manufacturer (Perbio, Bonn, Germany). Beads used were 5.6 μm diameter streptavidin coated polystyrene particles (Bangs Laboratories, Illinois, USA).
pMHC used for positive and negative control stimulations were A*0201/MLA-001 (peptide […] (SEQ ID NO. 152) from modified Melan-A/MART-1) and A*0201/DDX5-001 ([…] from DDX5 (SEQ ID NO. 153)), respectively.
800.000 beads/200 μl were coated in 96-well plates in the presence of 4×12.5 ng different biotin-pMHC, washed and 600 ng biotin anti-CD28 were added subsequently in a volume of 200 μl. Stimulations were initiated in 96-well plates by co-incubating […] CD8+ T cells with 2×10^5 washed coated beads in 200 μl TCM supplemented with 5 ng/ml IL-12 (PromoCell) for 3 days at 37° C. Half of the medium was then exchanged by fresh TCM supplemented with 80 U/ml IL-2 and incubating was continued for 4 days at 37° C. This stimulation cycle was performed for a total of three times. For the pMHC multimer readout using 8 different pMHC molecules per condition, a two-dimensional combinatorial coding approach was used as previously described (Andersen et al., 2012) with minor modifications encompassing coupling to 5 different fluorochromes. Finally, multimeric analyses were performed by staining the cells with Live/dead near IR dye (Invitrogen, Karlsruhe, Germany), CD8-FITC antibody clone SK1 (BD, Heidelberg, Germany) and fluorescent pMHC multimers. For analysis, a BD LSRII SORP cytometer equipped with appropriate lasers and filters was used. Peptide specific cells were calculated as percentage of total CD8+ cells. Evaluation of multimeric analysis was done using the FlowJo software (Tree Star, Oregon, USA). In vitro priming of specific multimer+ CD8+ lymphocytes was detected by comparing to negative control stimulations.

HLA-A*02:01 = HLA-A*02:01 (Homo sapiens, UniProt P04439, D140Y/D185E/D98H/E176V/E277Q/G131W/G231S/I119V/I121R/I166T/I218V/L300P/L318F/N151K/N90K/P208A/P217A/Q86G/Q94H/R138H/R169H/T345S); test: MHC binding assay (UV-ligand exchange, beta2m ELISA); conditions: peptide exchange yield, HLA-A*02:01, UV-ligand exchange
Source text: Candidate peptides for T cell based therapies according to the present invention were further tested for their MHC binding capacity (affinity). The individual peptide-MHC complexes were produced by UV-ligand exchange, where a UV-sensitive peptide is cleaved upon UV-irradiation, and exchanged with the peptide of interest as analyzed. Only peptide candidates that can effectively bind and stabilize the peptide-receptive MHC molecules prevent dissociation of the MHC complexes. To determine the yield of the exchange reaction, an ELISA was performed based on the detection of the light chain (β2m) of stabilized MHC complexes. The assay was performed as generally described in Rodenko et al. (Rodenko et al., 2006).
96 well MAXISorp plates (NUNC) were coated over night with 2 ug/ml streptavidin in PBS at room temperature, washed 4× and blocked for 1 h at 37° C. in 2% BSA containing blocking buffer. Refolded HLA-A*02:01/MLA-001 monomers served as standards, covering the range of 15-500 ng/ml. Peptide-MHC monomers of the UV-exchange reaction were diluted 100 fold in blocking buffer. Samples were incubated for 1 h at 37° C., washed four times, incubated with 2 ug/ml HRP conjugated anti-β2m for 1 h at 37° C., washed again and detected with TMB solution that is stopped with […]. Absorption was measured at 450 nm. Candidate peptides that show a high exchange yield (preferably higher than 50%, most preferred higher than 75%) are generally preferred for a generation and production of antibodies or fragments thereof, and/or T cell receptors or fragments thereof, as they show sufficient avidity to the MHC molecules and prevent dissociation of the MHC complexes.

- Peptide exchange (MHC class I binding score) (HLA-A*02:01): ++ (≥20% = ++)
Substance: 15 (ILIKHLVKV; listed as Homo sapiens) [compound 15]
- Wells positive [%] (CD8+ T cells): + (<20% = +)

- Peptide exchange (MHC class I binding score) (HLA-A*02:01): ++ (≥20% = ++)
Substance: 16 (FMPEELPQL; listed as Homo sapiens) [compound 16]
- Wells positive [%] (CD8+ T cells): + (<20% = +)

- Peptide exchange (MHC class I binding score) (HLA-A*02:01): ++ (≥20% = ++)
Substance: 20 (AVANTTFTV; listed as Homo sapiens) [compound 20]
- Wells positive [%] (CD8+ T cells): + (<20% = +)

- Peptide exchange (MHC class I binding score) (HLA-A*02:01): +++ (≥50 = +++)
Substance: 29 (ILLDLEQAL; listed as Homo sapiens) [compound 29]
- Wells positive [%] (CD8+ T cells): + (<20% = +)

- Peptide exchange (MHC class I binding score) (HLA-A*02:01): ++ (≥20% = ++)
Substance: 95 (KLTDVGIATL; listed as Homo sapiens) [compound 95]
- Wells positive [%] (CD8+ T cells): ++++ (>=70% = ++++)

- Peptide exchange (MHC class I binding score) (HLA-A*02:01): ++ (≥20% = ++)
Substance: 98 (KIPPVSPSI; listed as Homo sapiens) [compound 98]
- Wells positive [%] (CD8+ T cells): ++++ (>=70% = ++++)

The remaining lines, values behind:

Substance: 2 (ILWREVVTL; listed as Homo sapiens) [compound 2]
- Wells positive [%] (CD8+ T cells): + (<20% = +)
- Peptide exchange (MHC class I binding score) (HLA-A*02:01): +++ (≥50 = +++)

Substance: 3 (RLLGEVQAL; listed as Homo sapiens) [compound 3]
- Wells positive [%] (CD8+ T cells): + (<20% = +)
- Peptide exchange (MHC class I binding score) (HLA-A*02:01): ++ (≥20% = ++)

Substance: 6 (VLFELSKTV; listed as Homo sapiens) [compound 6]
- Wells positive [%] (CD8+ T cells): + (<20% = +)
- Peptide exchange (MHC class I binding score) (HLA-A*02:01): +++ (≥50 = +++)

Substance: 7 (FLLSLIDRL; listed as Homo sapiens) [compound 7]
- Wells positive [%] (CD8+ T cells): + (<20% = +)
- Peptide exchange (MHC class I binding score) (HLA-A*02:01): +++ (≥50 = +++)

Substance: 9 (ILLQKPDSV; listed as Homo sapiens) [compound 9]
- Wells positive [%] (CD8+ T cells): + (<20% = +)
- Peptide exchange (MHC class I binding score) (HLA-A*02:01): ++ (≥20% = ++)
